Where two headings read alike, the source gives them in different places.
Target: T1, mouse TMEM16A mutant I512A (Mus musculus, UniProt Q8BHY3, I512A)
T1 construct: expressed in transfected cells; host or cells: HEK293T
T1 sequence (Q8BHY3 1-960 I512A): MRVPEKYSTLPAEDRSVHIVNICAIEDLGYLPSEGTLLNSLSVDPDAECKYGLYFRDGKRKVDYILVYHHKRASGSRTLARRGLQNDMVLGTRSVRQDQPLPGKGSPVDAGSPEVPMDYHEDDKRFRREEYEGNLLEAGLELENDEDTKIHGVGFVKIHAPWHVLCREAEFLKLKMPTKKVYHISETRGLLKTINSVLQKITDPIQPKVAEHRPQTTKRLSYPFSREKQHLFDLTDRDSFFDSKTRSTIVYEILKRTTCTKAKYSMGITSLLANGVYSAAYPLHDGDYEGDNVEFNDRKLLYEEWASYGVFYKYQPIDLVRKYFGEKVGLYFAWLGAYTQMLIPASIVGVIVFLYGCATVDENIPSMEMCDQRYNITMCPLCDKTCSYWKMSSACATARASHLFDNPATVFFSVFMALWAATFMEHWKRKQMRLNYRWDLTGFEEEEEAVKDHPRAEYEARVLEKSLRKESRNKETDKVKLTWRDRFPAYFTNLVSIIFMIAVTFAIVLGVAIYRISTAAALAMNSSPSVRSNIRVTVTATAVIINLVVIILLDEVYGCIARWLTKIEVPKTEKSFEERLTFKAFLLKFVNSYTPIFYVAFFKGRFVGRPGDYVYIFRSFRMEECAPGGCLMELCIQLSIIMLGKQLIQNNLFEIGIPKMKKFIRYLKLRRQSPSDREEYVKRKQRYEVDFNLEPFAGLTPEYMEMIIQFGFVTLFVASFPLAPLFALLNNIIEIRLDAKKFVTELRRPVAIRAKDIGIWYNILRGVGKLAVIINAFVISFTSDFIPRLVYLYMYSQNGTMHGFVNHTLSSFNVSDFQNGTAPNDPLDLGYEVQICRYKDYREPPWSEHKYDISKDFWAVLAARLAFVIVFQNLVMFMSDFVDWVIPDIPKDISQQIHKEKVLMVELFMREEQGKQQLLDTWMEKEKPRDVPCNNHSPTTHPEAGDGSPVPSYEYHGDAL
Assay: Inside-out patch recording of 1PBC block, mutant I512A
Type: cell-based
Details: for remaining activity at 30 µM: 1PBC 30; for remaining activity at 30 µM / remaining activity at 100 µM: read-out: fraction of unblocked current; for remaining activity at 100 µM: 1PBC 100
Procedure: HEK293T cells (ATCC CRL-1573) were maintained in Dulbecco’s modified Eagle’s medium (DMEM; Sigma-Aldrich) supplemented with 10 U ml^−1 penicillin, 0.1 mg ml^−1 streptomycin (Sigma-Aldrich), 2 mM L-glutamine (Sigma-Aldrich), and 10% FBS (Sigma-Aldrich) in a humidified atmosphere containing 5% CO2 at 37 °C. HEK293S GnTI^− cells (ATCC CRL-3022) were maintained in HyClone HyCell TransFx-H medium (GE Healthcare) supplemented with 10 U ml^−1 penicillin, 0.1 mg ml^−1 streptomycin, 4 mM L-glutamine, 0.15% poloxamer 188 (Sigma-Aldrich), and 1% FBS in an atmosphere containing 5% CO2 at 185 rpm at 37 °C. The ac splice variant of mouse TMEM16A (UniProt ID: Q8BHY3), mouse TMEM16B (UniProt ID: Q8CFW1), or mouse TMEM16F (UniProt ID: Q6P9J9) bearing a 3C cleavage site, a Venus YFP, a Myc tag, and a Streptavidin-binding peptide (SBP) downstream of the open reading frame in a modified pcDNA3.1 vector (Invitrogen) were used as described previously[21],[31]. Mutations were introduced using a modified QuikChange method[58] and were verified by sequencing.
HEK293T cells were transfected with 3–4 μg DNA per 6 cm Petri dish using the calcium phosphate co-precipitation method and were used within 24–96 h after transfection. Recordings were performed on inside-out patches excised from HEK293T cells expressing the construct of interest. Patch pipettes were pulled from borosilicate glass capillaries (O.D. 1.5 mm, I.D. 0.86 mm, Sutter Instrument) and were fire-polished with a microforge (Narishige) before use. Pipette resistance was typically 3–8 MΩ when filled with the recording solutions detailed below. Seal resistance was typically 4 GΩ or higher. Voltage-clamp recordings were made using Axopatch 200B, Digidata 1550, and Clampex 10.7 (Molecular Devices). Analog signals were filtered with the in-built 4-pole Bessel filter at 10 kHz and were digitized at 20 kHz. Solution exchange was achieved using a gravity-fed system through a theta glass pipette mounted on an ultra-fast piezo-driven stepper (Siskiyou). […] All recordings were performed at 20 °C.
A symmetrical ionic condition was used throughout. Stock solution with Ca^2+-EGTA contained 150 mM NaCl, 5.99 mM Ca(OH)2, 5 mM EGTA, and 10 mM HEPES at pH 7.40. Stock solution with EGTA contained 150 mM NaCl, 5 mM EGTA, and 10 mM HEPES at pH 7.40. Free Ca^2+ concentrations were adjusted by mixing the stock solutions at the required ratios calculated using the WEBMAXC program (http://web.stanford.edu/~cpatton/webmaxcS.htm). Patch pipettes were filled with the stock solution with Ca^2+-EGTA, which has a free Ca^2+ concentration of 1 mM. 1PBC (ChemBridge) stock was reconstituted in anhydrous DMSO (Sigma-Aldrich) at 100 mM and stored at −20 °C. Working solutions with 1PBC were prepared by serial dilution. Unless otherwise stated, experiments were performed at a saturating Ca^2+ concentration as shown in Supplementary Table 1 and the primary data were corrected for current rundown as described previously[21],[25].
Concentration-response relations, obtained from the ratio of the I-V plots before and after the application of the blocker, were fitted to the Hill equation,1 I/Imax=1/1+IC50/[blocker]^h where I/Imax is the normalized current responses, IC50 defines the concentration at which inhibition is at its half-maximum, and h is the Hill coefficient.

Q: N#Cc1c(C(F)(F)F)cc(O)n2c1nc1ccccc12 [1PBC] was tested. Which remaining activity at 30 µM (-60 mV) did it give?
A: Its remaining activity at 30 µM is 62.3%.

Q: What about the remaining activity at 30 µM (-80 mV) of the same molecule?
A: The remaining activity at 30 µM was 65.6%.

Q: What about the remaining activity at 30 µM (-100 mV) of the same molecule?
A: Its remaining activity at 30 µM is 68.2%.

Q: And the remaining activity at 30 µM (-120 mV)?
A: The remaining activity at 30 µM was 70.8%.

Q: What about the remaining activity at 30 µM (-140 mV) of the same molecule?
A: The remaining activity at 30 µM was 72%.

Q: And the remaining activity at 100 µM (0 mV)?
A: Its remaining activity at 100 µM is 23.3%.

Q: What about the remaining activity at 100 µM (20 mV) of the same molecule?
A: The remaining activity at 100 µM was 19.1%.

Q: And the remaining activity at 100 µM (40 mV)?
A: The remaining activity at 100 µM was 18.1%.

Q: And the remaining activity at 100 µM (60 mV)?
A: The remaining activity at 100 µM was 15.6%.

Q: And the remaining activity at 100 µM (80 mV)?
A: Its remaining activity at 100 µM is 14%.

Q: What about the remaining activity at 100 µM (100 mV) of the same molecule?
A: The remaining activity at 100 µM was 13.1%.

Q: What about the remaining activity at 100 µM (120 mV) of the same molecule?
A: Its remaining activity at 100 µM is 12.2%.

Q: And the remaining activity at 100 µM (140 mV)?
A: Its remaining activity at 100 µM is 12.1%.

Q: And the remaining activity at 100 µM (-20 mV)?
A: Its remaining activity at 100 µM is 27.5%.

Q: And the remaining activity at 100 µM (-40 mV)?
A: Its remaining activity at 100 µM is 29.4%.

Q: What about the remaining activity at 100 µM (-60 mV) of the same molecule?
A: Its remaining activity at 100 µM is 32.8%.

Q: What about the remaining activity at 100 µM (-80 mV) of the same molecule?
A: Its remaining activity at 100 µM is 36%.

Q: What about the remaining activity at 100 µM (-100 mV) of the same molecule?
A: The remaining activity at 100 µM was 39.7%.

Q: And the remaining activity at 100 µM (-120 mV)?
A: Its remaining activity at 100 µM is 42.4%.

Q: What about the remaining activity at 100 µM (-140 mV) of the same molecule?
A: Its remaining activity at 100 µM is 45.3%.

Q: What about the IC50 (20 mV, 2 µM Ca2+) of the same molecule?
A: Its IC50 is 25.5 µM.

Q: What about the IC50 (40 mV, 2 µM Ca2+) of the same molecule?
A: Its IC50 is 21.8 µM.

Q: And the IC50 (60 mV, 2 µM Ca2+)?
A: The IC50 was 19 µM.

Q: And the “log-fold IC50 (change of mutant vs WT)” value (80 mV)?
A: Its value is 0.8662.

Q: And the IC50 (80 mV, 2 µM Ca2+)?
A: Its IC50 is 17 µM.

Q: And the IC50 (100 mV, 2 µM Ca2+)?
A: Its IC50 is 15.9 µM.

Q: And the IC50 (120 mV, 2 µM Ca2+)?
A: The IC50 was 15.8 µM.

Q: What about the IC50 (140 mV, 2 µM Ca2+) of the same molecule?
A: The IC50 was 16.6 µM.

Q: And the IC50 (-20 mV, 2 µM Ca2+)?
A: The IC50 was 37.1 µM.

Q: And the IC50 (-40 mV, 2 µM Ca2+)?
A: Its IC50 is 42.9 µM.

Q: What about the IC50 (-60 mV, 2 µM Ca2+) of the same molecule?
A: The IC50 was 50.1 µM.

Q: And the IC50 (-80 mV, 2 µM Ca2+)?
A: The IC50 was 57.9 µM.

Q: What about the IC50 (-100 mV, 2 µM Ca2+) of the same molecule?
A: Its IC50 is 66.1 µM.

Q: What about the IC50 (-120 mV, 2 µM Ca2+) of the same molecule?
A: The IC50 was 73.6 µM.

Q: And the IC50 (-140 mV, 2 µM Ca2+)?
A: Its IC50 is 80.9 µM.

Q: What about the IC50 (I512A, V 0 mV) of the same molecule?
A: Its IC50 is 30.7 µM.

Q: What about the IC50 (I512A, V 20 mV) of the same molecule?
A: The IC50 was 25.5 µM.

Q: And the IC50 (I512A, V 40 mV)?
A: Its IC50 is 21.8 µM.

Q: And the IC50 (I512A, V 60 mV)?
A: Its IC50 is 19 µM.

Q: What about the IC50 (I512A, V 80 mV) of the same molecule?
A: The IC50 was 17 µM.

Q: What about the IC50 (I512A, V 100 mV) of the same molecule?
A: The IC50 was 15.9 µM.

Q: And the IC50 (I512A, V 120 mV)?
A: Its IC50 is 15.8 µM.

Q: And the IC50 (I512A, V 140 mV)?
A: The IC50 was 16.6 µM.

Q: And the IC50 (I512A, V -20 mV)?
A: The IC50 was 37.1 µM.

Q: What about the IC50 (I512A, V -40 mV) of the same molecule?
A: The IC50 was 42.9 µM.

Q: What about the IC50 (I512A, V -60 mV) of the same molecule?
A: The IC50 was 50.1 µM.

Q: And the IC50 (I512A, V -80 mV)?
A: Its IC50 is 57.9 µM.

Q: What about the IC50 (I512A, V -100 mV) of the same molecule?
A: Its IC50 is 66.1 µM.

Q: What about the IC50 (I512A, V -120 mV) of the same molecule?
A: The IC50 was 73.6 µM.

Q: What about the IC50 (I512A, V -140 mV) of the same molecule?
A: Its IC50 is 80.9 µM.

Source: paper PMC9120017, “Inhibition mechanism of the chloride channel TMEM16A by the pore blocker 1PBC” (Nature Communications, 2022)
